This note sets out measurements from PMC7756445, “A Novel Prodrug of a nNOS Inhibitor with Improved Pharmacokinetic Potential” (Chemmedchem, 2020).

As a reminder, the Papp is the rate of passage across a membrane or cell layer, normalised by area and donor concentration.

Bounds are passed on as bounds.

One data set can be described thus: PAMPA-GI assay. Details: Papp at 2 h: dose or concentration left out as unconfirmed. The settings on record: for Papp at 2 h: PAMPA. The protocol:
The relative passive transcellular diffusion of compounds, expressed as permeability coefficient (Pe), was determined with a permeability equation. ^[45] The permeabilities of 1, 2, and 1400 W were determined at pH 5.0, 6.5, and 7.4 to mimic the physiological conditions of the GI tract (Table 1). […] As the new prodrug was designed for the potential treatment of neurodegenerative diseases, an important parameter is its capability to cross the BBB.
Each donor filtration plate well, carefully impregnated with 5 µL of this solution, was added of 150 μL of […] test compound buffer solutions (phosphate buffer for pH 7.4 and pH 6.5 and hydrochloric acid buffer for pH 1.4). Subsequently, the drug‐filled donor plate was placed onto the acceptor plate prefilled with the same buffer (300 μL) as the acceptor solution. Once replaced the plate lid, the resulting assembled donor‐acceptor plates were incubated at room temperature for 2 h. The concentration in the acceptor and donor solutions were determined by HPLC. The Pe was determined as previously reported. ^[47]
(The PAMPA barrier holds no transporters, so it reflects passive diffusion.)

The target of the next data set is T1, mARC1 (Homo sapiens, UniProt Q5VT66).
T1 sequence (Q5VT66 41-337 limits assumed): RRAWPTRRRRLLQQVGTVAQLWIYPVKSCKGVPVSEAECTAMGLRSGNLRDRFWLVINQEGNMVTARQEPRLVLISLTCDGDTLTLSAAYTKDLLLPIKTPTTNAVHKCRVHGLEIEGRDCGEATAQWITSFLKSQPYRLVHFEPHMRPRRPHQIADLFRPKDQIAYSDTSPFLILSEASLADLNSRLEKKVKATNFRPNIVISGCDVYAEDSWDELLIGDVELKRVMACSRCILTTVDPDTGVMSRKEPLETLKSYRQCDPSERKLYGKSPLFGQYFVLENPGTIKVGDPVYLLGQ
The experiment in a line: Bioconversion with the mARC enzyme system (UV/Vis NADH assay, LC-MS). Format: in vitro ADME. To be noted: for conversion to reduced amidine 1 (LC-MS): mARC1 incubation. The protocol: (§1) The turnover rate of the amidoxime 2 was tested by an enzymatic NADH assay ^[38] with the mARC enzyme system in comparison to the model substrate benzamidoxime (BAO).
(§2) Due to this known in vivo studies and to other known prodrugs which are activated by mARC, for example, upamostat and ximelagatran, ^[38] it can be expected that the amidoxime prodrug 2 will also be converted extensively in vivo, and is thus a very suitable prodrug for the amidine 1 and making it orally available.
(§3) The assay was performed as previously described. ^[38] The proteins were dissolved in 20 mM of 2‐(N‐morpholino)ethanesulfonic acid (MES) buffer (pH 6.0) in disposable micro UV cuvettes. Each batch contained 15 μg human mARC, 7 μg B5 and 0.16 μg B5R. The enzymes were preincubated with the respective substrate (concentration 3 mM) for 3 min at 37 °C (total volume 240 μL). This mixture was measured as blank value and immediately mixed with 60 μL NADH (concentration 1 mM). The kinetics were measured over a period of 15 min at 37 °C, with absorption between 300 and 400 nm being measured at intervals of 30 sec. The measurement was stopped when the absorption stopped changing. The measurements were taken with a Varian Cary® 50 UV/Vis spectrophotometer from Agilent, which was tempered with a Varian Cary® PCB‐150 Peltier Controlled Cryobath. The samples were mixed with cold methanol and centrifuged for 5 min at 10 000 rpm, Swing‐out Rotor, and stored at −80 °C for further analysis.
(§4) A Bruker Amazon SL Ion Trap with upstream Agilent 1260 HPLC system was used with a Waters Xterra MS C8, 4.6×50 mm, 3.5 μm column, with Phenomenex, Security Guard C18 precolumn 3×4 mm. A gradient was employed with eluent A: 0.1 % acetic acid Suprapur, Merck, in Aqua Bidest, eluent B: CH3CN, Sigma Aldrich Chromasolv for gradient HPLC. The gradient was changed from 97 % A to 100 % B within 10 min. The injection volume was 1 μL and 10 μL respectively. The column temperature was 20 °C. Software of the HPLC: Hystar 3.2 SR 2. Software to control the mass spectrometer: Bruker Trap Control 7.0 Software to evaluate the data: Bruker Data Analysis 4.0.

The target of another data set is T2, mARC2 (Homo sapiens, UniProt Q969Z3).
T2 sequence (Q969Z3 36-335): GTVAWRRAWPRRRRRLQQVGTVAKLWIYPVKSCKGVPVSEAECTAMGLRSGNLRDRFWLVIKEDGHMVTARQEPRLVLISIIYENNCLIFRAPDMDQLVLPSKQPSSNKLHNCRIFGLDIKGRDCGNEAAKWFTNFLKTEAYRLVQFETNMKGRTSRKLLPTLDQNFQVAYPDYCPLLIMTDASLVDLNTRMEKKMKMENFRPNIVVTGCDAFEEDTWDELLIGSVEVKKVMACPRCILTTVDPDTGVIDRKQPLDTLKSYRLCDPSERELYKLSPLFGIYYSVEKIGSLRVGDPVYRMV
The data set is described as above. Format: in vitro ADME. The settings on record: for conversion to reduced amidine 1 (LC-MS): mARC2 incubation. The protocol: as §1, §2, §3, §4

Data set [1] can be described thus: Stability in human plasma. To be noted: 37 °C. The data set is classed as in vitro ADME. The protocol:
Finally, the stability in human plasma was assessed.
Human plasma was purchased from 3H Biomedical (Uppsala, Sweden). For the determination of enzymatic stability in human plasma, the reactions were initiated by adding 50 μL of compound stock solution to 450 μL of pre‐heated plasma, and incubated at 37±0.5 °C. At appropriate time intervals, 50 μL of the plasma were taken and deproteinized by the addition of 450 μL of CH3CN. After mixing and centrifugation for 10 min at 10 000 rpm, the supernatant (5 μL) was analyzed by HPLC, adopting the same chromatographic conditions described for chemical stability evaluations. ^[48]

Consider `C/C(=N\O)NC(c1ccccc1)c1ccccc1` [Compound 2, (1E)‐N‐(diphenylmethyl)‐N′‐hydroxyethanimidamide], for which the Papp at 2 h amounted to 0.66 ×10⁻⁶ cm/s in “PAMPA-GI assay” (pH 1.4), 1.57 ×10⁻⁶ cm/s in “PAMPA-GI assay” (pH 6.5) and 2.03 ×10⁻⁶ cm/s in “PAMPA-GI assay” (pH 7.4). The “PAMPA-GI Pe (bound stated in text)” value in the data set “PAMPA-GI assay” (pH 6.5) and in the data set “PAMPA-GI assay” (pH 7.4) was > 1.5×10^−6 throughout. Moreover, the “conversion to reduced amidine 1 (LC-MS)” value at mARC1 was “could be found”; on mARC1 (listed as amidoxime), “completely converted”; at mARC2, “could be found”; at mARC2 (listed as amidoxime) it was “completely converted”. Further, the “turnover rate (NADH consumption) compared with BAO” value was “clearly identical” on mARC1 (mARC1 with B5 and B5R, substrate 3 mM, pH 6.0, 37 °C); “very similar” at mARC2 (mARC2 with B5 and B5R, substrate 3 mM, pH 6.0, 37 °C). The “stability in human plasma” value in data set [1] is “stable”.
